Laboratory results reported in the NIST ThermoML archive (doi:10.1016/j.jct.2011.02.018).

Assay: xn = mol fraction of the nth substance listed
Details: 101 kPa, Liquid; for viscosity: Concentric cylinders viscometry; for mass density: Vibrating tube method

COC(C)(C)C [2-methoxy-2-methylpropane] + CCCCCO
Details | mass density, 293.15 K [kg/m3] | mass density, 298.15 K [kg/m3] | mass density, 303.15 K [kg/m3] | mass density, 308.15 K [kg/m3] | viscosity, 293.15 K [mPa·s] | viscosity, 298.15 K [mPa·s] | viscosity, 303.15 K [mPa·s] | viscosity, 308.15 K [mPa·s]
x1 = 0.0105 | 813.89 | 810.25 | 806.55 | 802.82 | 3.895 | 3.372 | 2.932 | 2.562
x1 = 0.0197 | 813.34 | 809.68 | 805.95 | 802.2 | 3.775 | 3.273 | 2.852 | 2.493
x1 = 0.0321 | 812.56 | 808.89 | 805.15 | 801.39 | 3.615 | 3.143 | 2.743 | 2.406
x1 = 0.0401 | 812.06 | 808.37 | 804.63 | 800.86 | 3.516 | 3.059 | 2.675 | 2.344
x1 = 0.0506 | 811.39 | 807.69 | 803.93 | 800.15 | 3.394 | 2.958 | 2.588 | 2.274
x1 = 0.0595 | 810.83 | 807.12 | 803.35 | 799.56 | 3.292 | 2.872 | 2.517 | 2.214
x1 = 0.0699 | 810.18 | 806.45 | 802.67 | 798.87 | 3.176 | 2.778 | 2.438 | 2.149
x1 = 0.0811 | 809.49 | 805.73 | 801.94 | 798.11 | 3.061 | 2.683 | 2.357 | 2.079
x1 = 0.0901 | 808.93 | 805.14 | 801.33 | 797.5 | 2.97 | 2.606 | 2.294 | 2.028
x1 = 0.1042 | 808.03 | 804.23 | 800.41 | 796.55 | 2.841 | 2.495 | 2.214 | 1.949
x1 = 0.1506 | 805.02 | 801.2 | 797.3 | 793.39 | 2.45 | 2.168 | 1.927 | 1.716
x1 = 0.2078 | 801.27 | 797.36 | 793.4 | 789.41 | 2.058 | 1.837 | 1.648 | 1.473
x1 = 0.252 | 798.32 | 794.34 | 790.33 | 786.28 | 1.809 | 1.619 | 1.457 | 1.312
x1 = 0.301 | 795.01 | 790.96 | 786.88 | 782.75 | 1.574 | 1.418 | 1.281 | 1.159
x1 = 0.3492 | 791.65 | 787.57 | 783.41 | 779.21 | 1.387 | 1.254 | 1.135 | 1.033
x1 = 0.3996 | 788.14 | 783.99 | 779.75 | 775.48 | 1.207 | 1.098 | 1 | 0.9139
x1 = 0.4577 | 784 | 779.75 | 775.42 | 771.06 | 1.042 | 0.953 | 0.8735 | 0.8008
x1 = 0.4985 | 781.06 | 776.76 | 772.36 | 767.93 | 0.9442 | 0.8668 | 0.7962 | 0.7313
x1 = 0.5512 | 777.21 | 772.8 | 768.33 | 763.81 | 0.8364 | 0.7702 | 0.7102 | 0.6515
x1 = 0.5999 | 773.61 | 769.09 | 764.55 | 759.95 | 0.7504 | 0.6941 | 0.6401 | 0.5895
x1 = 0.6506 | 769.72 | 765.16 | 760.51 | 755.83 | 0.6719 | 0.6222 | 0.5765 | 0.5309
x1 = 0.6986 | 766.04 | 761.39 | 756.67 | 751.9 | 0.606 | 0.5627 | 0.5215 | 0.4812
x1 = 0.7451 | 762.49 | 757.72 | 752.92 | 748.06 | 0.5517 | 0.5167 | 0.4765 | 0.4421
x1 = 0.7976 | 758.12 | 753.3 | 748.39 | 743.42 | 0.4971 | 0.4653 | 0.4332 | 0.4011
x1 = 0.8534 | 753.55 | 748.61 | 743.59 | 738.51 | 0.4455 | 0.4172 | 0.3868 | 0.3584
x1 = 0.898 | 749.74 | 744.73 | 739.63 | 734.47 | 0.4101 | 0.3855 | 0.3594 | 0.3315
x1 = 0.9098 | 748.75 | 743.7 | 738.59 | 733.41 | 0.4017 | 0.3772 | 0.3526 | 0.3257
x1 = 0.9195 | 747.92 | 742.85 | 737.72 | 732.53 | 0.3954 | 0.3701 | 0.3467 | 0.3192
x1 = 0.9289 | 747.1 | 742.01 | 736.85 | 731.64 | 0.388 | 0.3658 | 0.3396 | 0.3137
x1 = 0.9419 | 745.96 | 740.85 | 735.67 | 730.43 | 0.3807 | 0.3564 | 0.3307 | 0.3102
x1 = 0.9495 | 745.29 | 740.17 | 734.96 | 729.72 | 0.3752 | 0.354 | 0.3276 | 0.3054
x1 = 0.9594 | 744.4 | 739.28 | 734.04 | 728.78 | 0.3682 | 0.3458 | 0.3227 | 0.3007
x1 = 0.9688 | 743.56 | 738.42 | 733.17 | 727.88 | 0.3623 | 0.3405 | 0.317 | 0.2966
x1 = 0.9792 | 742.63 | 737.46 | 732.2 | 726.89 | 0.3563 | 0.3352 | 0.3104 | 0.2916
x1 = 0.9902 | 741.63 | 736.44 | 731.16 | 725.83 | 0.3533 | 0.3291 | 0.3035 | 0.2863
